Measured values: patent publication US20240376094A2, “SELECTIVE BCL-XL PROTAC COMPOUNDS AND METHODS OF USE” (Les Laboratoires Servier, priority 2021, published 2024)

Key:
Type in all cases: cell-based
COR-L105 = experiment: CellTiter-Glo proliferation assay, COR-L105; conditions: Homo sapiens, COR-L105, 120 h, COR-L105, 5 days; for Emax: read-out: COR-L105 Span (max)
Outline: (§1)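 Both lines grown in RPMI-1640 + 10% FBS. COR-L105 plated flat at 1,000 cells/well overnight; NCI-H1650 grown as spheroids, 3,000 cells/well, 72 h. Compounds at 0.508 nM-10 μM final for 5 days, 37° C. ATP read by CellTiter-Glo (3D version for spheroids); IC50 from variable-slope fit normalized to untreated cells.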

NCI-H1650 = experiment: CellTiter-Glo 3D proliferation assay, NCI-H1650 spheroids; conditions: Homo sapiens, NCI-H1650, 120 h, 5 days; for Emax: read-out: NCI-H1650 Span (Amax)
Outline: as §1

endogenous BCL-xL = target: T1, endogenous BCL-xL (Homo sapiens, UniProt Q07817); experiment: Degradation of endogenous BCL-xL in COR-L105 (ProteinSimple Jess); conditions: COR-L105, 24 h, COR-L105, dose 300 nM, read-out: % BCL-xL vs. Untreated, COR-L105
T1 construct: endogenous in cells; host or cells: COR-L105 (ECACC No. 92031918); NCI-H1650 (ATCC No. CRL-5883)
Description: The BCL-xL degrader low molecular weight compounds were tested against two endogenous cancer cell lines: • COR-L105: ECACC No. 92031918 cultured in RPMI-1640+10% FBS • NCI-H1650: (ATCC No. CRL-5883 cultured in RPMI-1640+10% FBS
The ability of the BCL-xL degrader low molecular weight compounds to degrade endogenous BCL-xL was assessed using the ProteinSimple 2-40 kDa Jess Separation Module.
Cell lines were cultured in media that is optimal for their growth at 5% CO2, 37° C. in a tissue culture incubator. Prior to seeding for the degradation assay, the cells were split at least 2 days before the assay to ensure optimal growth density. On the day of seeding, adherent cells were lifted off tissue culture flasks using 0.25% trypsin. Cell viability and cell density were determined using a cell counter (Vi-Cell XR Cell Viability Analyzer, Beckman Coulter). Cells with higher than 85% viability were seeded for the assay.
The COR-L105 and the NCI-H1650 cell line were seeded in 6-well clear TC-treated multiple well plates (Costar® cat. #3516). Cells were seeded at a density of 2,000,000 cells per well in 2.5 mL of standard growth media. Plates were incubated at 5% CO2, 37° C. overnight in a tissue culture incubator. On the day of dosing, BCL-xL degrader low molecular weight compounds and a BCL-xL inhibitor control were prepared at 6× in standard growth media. The prepared drug treatments were then added to the cells resulting in a final concentration of 100-300 nM and a final volume of 3.0 mL per well. A control well of untreated cells was also included in the study. Each drug concentration was tested in singlet. Plates were incubated at 5% CO2, 37° C. for 24 hours in a tissue culture incubator.
After 24 hours, the adherent cells were lifted off tissue culture plates using 0.25% trypsin. Standard growth media was added to quench the trypsin and centrifuged for 5 minutes at 1500 rpm. Cell pellets were washed once with cold PBS and centrifuged for 5 minutes at 1500 rpm. Cells were then washed with 1 mL cold PBS and transferred to a 1.5 mL eppendorf tube. Cells were centrifuged for 10 minutes at ≥10,000 g at 4° C. in a benchtop mini-centrifuge. The entire supernatant was discarded and cells were resuspended thoroughly in 50 μL of RIPA lysis buffer, generated by the manufacturer's protocol (ProteinSimple, Cat. #CBS401: Lysis Kit—RIPA Buffer for Charge Assays). Lysates were incubated on ice for 30 minutes. Following incubation, lysates were spun in a benchtop mini-centrifuge for 15 minutes at full speed at 4° C. Supernatant was carefully transferred to a new eppendorf tube for downstream analysis.
Protein was quantified using a Pierce™ BCA Protein Assay Kit (ThermoFisher, cat #23225) following the manufacturer's instructions. A standard curve was prepared by adding 25 μL of each concentration of reference samples from a Pierce™ Bovine Serum Albumin Standard Pre-Diluted Set (ThermoFisher, cat #23208). Each reference sample was run in duplicate. Testing samples were prepared by diluting cell lysates 1:5 in UltraPure™ DNase/RNase-Free Distilled Water and tested in duplicates of 25 μL each. The BCA working reagent was prepared by addition of 50 parts of BCA Reagent A with 1 part of BCA Reagent B. For each testing well, 200 μL of BCA working reagent was added. The plate was incubated at 37° C. for 30 minutes. A SpectraMax M Series Multi-Mode Microplate Reader was used to measure the absorbance at 562 nm. A standard curve generated by the Pierce™ Bovine Serum Albumin Standard Pre-Diluted Set was used to normalize and calculate the BCA concentration of cell lysates. Only values that fell within the range of the standard curve were accepted for quantification.
The ProteinSimple 2-40 kDa Jess Separation Module was used to detect BCL-xL degradation in treated versus untreated lysates following the manufacturer's instructions (25-Capillary Cartridge, 8 pack, 2-40 kDa, cat #SM W012). […]

T1 sequence (Q07817 whole entry): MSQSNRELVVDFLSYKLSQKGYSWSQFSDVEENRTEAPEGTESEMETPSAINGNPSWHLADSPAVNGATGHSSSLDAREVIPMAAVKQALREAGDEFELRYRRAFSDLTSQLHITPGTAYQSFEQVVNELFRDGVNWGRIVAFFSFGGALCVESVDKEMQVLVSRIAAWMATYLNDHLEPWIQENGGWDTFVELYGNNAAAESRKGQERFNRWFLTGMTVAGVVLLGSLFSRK

| SMILES | IC50 (NCI-H1650) [nM] | remaining activity at 0.3 µM (endogenous BCL-xL) [%] | IC50 (COR-L105) [nM] | Emax (COR-L105) [%] | Emax (NCI-H1650) [%] |
| --- | --- | --- | --- | --- | --- |
| Cc1ncsc1-c1ccc([C@H](C)NC(=O)[C@@H]2C[C@@H](O)CN2C(=O)[C@@H](NC(=O)c2ccc(C(=O)N3CCN(CC#Cc4ccc(OCCCc5sc(N6CCCc7c6nnc(Nc6nc8ccccc8s6)c7C)nc5C(=O)O)c(F)c4)CC3)cc2F)C(C)(C)C)cc1 [Example 43, 2-(3-(benzo[d]thiazol-2-ylamino)-4-methyl-6,7-dihydropyrido [2,3-c]pyridazin-8(5H)-yl)-5-(3-(2-fluoro-4-(3-(4-(3-fluoro-4-(((S)-1-((2S,4R)-4-hydroxy-2-(((S)-1-(4-(4-methylthiazol-5-yl)phenyl)ethyl)carbamoyl)pyrrolidin-1-yl)-3,3-dimethyl-1-oxobutan-2-yl)carbamoyl)benzoyl)piperazin-1-yl)prop-1-yn-1-yl)phenoxy)propyl)thiazole-4-carboxylic acid] | 4.22 | 19.9 | 74.8 | 85.9 | 80.3 |
| Cc1ncsc1-c1ccc(CNC(=O)[C@@H]2C[C@@H](O)CN2C(=O)[C@@H](NC(=O)CCCCCCCCCCC(=O)N2CCN(CC#Cc3ccc(OCCCc4sc(N5CCCc6c5nnc(Nc5nc7ccccc7s5)c6C)nc4C(=O)O)c(F)c3)CC2)C(C)(C)C)c(O)c1 [Example 45, 2-(3-(benzo[d]thiazol-2-ylamino)-4-methyl-6,7-dihydropyrido [2,3-c]pyridazin-8(5H)-yl)-5-(3-(2-fluoro-4-(3-(4-(12-(((S)-1-((2S,4R)-4-hydroxy-2-((2-hydroxy-4-(4-methylthiazol-5-yl)benzyl)carbamoyl)pyrrolidin-1-yl)-3,3-dimethyl-1-oxobutan-2-yl)amino)-12-oxododecanoyl)piperazin-1-yl)prop-1-yn-1-yl)phenoxy)propyl)thiazole-4-carboxylic acid] | 6.27 | 40.1 | 68.3 | 83 | 81.2 |
| Cc1ncsc1-c1ccc([C@H](C)NC(=O)[C@@H]2C[C@@H](O)CN2C(=O)[C@@H](NC(=O)CCCCCCCCN2CCN(CC#Cc3ccc(OCCCc4sc(N5CCCc6c5nnc(Nc5nc7ccccc7s5)c6C)nc4C(=O)O)c(F)c3)CC2)C(C)(C)C)cc1 [Example 52, 2-(3-(benzo[d]thiazol-2-ylamino)-4-methyl-6,7-dihydropyrido [2,3-c]pyridazin-8(5H)-yl)-5-(3-(2-fluoro-4-(3-(4-(9-(((S)-1-((2S,4R)-4-hydroxy-2-(((S)-1-(4-(4-methylthiazol-5-yl)phenyl)ethyl)carbamoyl)pyrrolidin-1-yl)-3,3-dimethyl-1-oxobutan-2-yl)amino)-9-oxononyl)piperazin-1-yl)prop-1-yn-1-yl)phenoxy)propyl)thiazole-4-carboxylic acid] | 2.82 | 28.6 | 9.93 | 80.6 | 60.8 |

Further molecules by falling IC50 (NCI-H1650), results first:

| IC50 (NCI-H1650) [nM] | remaining activity at 0.3 µM (endogenous BCL-xL) [%] | SMILES | IC50 (COR-L105) [nM] | Emax (COR-L105) [%] | Emax (NCI-H1650) [%] |
| --- | --- | --- | --- | --- | --- |
| 44.1 | > 90 | Cc1ncsc1-c1ccc([C@H](C)NC(=O)[C@@H]2C[C@@H](O)CN2C(=O)[C@@H](NC(=O)CCC(=O)N2CCN(CCOC34CC5(C)CC(C)(CC(Cn6ncc(-c7ccc(N8CCCc9c8nnc(Nc8nc%10ccccc%10s8)c9C)nc7C(=O)O)c6C)(C5)C3)C4)CC2)C(C)(C)C)cc1 [Example 49, 6-(3-(benzo[d]thiazol-2-ylamino)-4-methyl-6,7-dihydropyrido [2,3-c]pyridazin-8(5H)-yl)-3-(1-(((1r,3s,5R,7S)-3-(2-(4-(4-(((S)-1-((2S,4R)-4-hydroxy-2-(((S)-1-(4-(4-methylthiazol-5-yl)phenyl)ethyl)carbamoyl)pyrrolidin-1-yl)-3,3-dimethyl-1-oxobutan-2-yl)amino)-4-oxobutanoyl)piperazin-1-yl)ethoxy)-5,7-dimethyladamantan-1-yl)methyl)-5-methyl-1H-pyrazol-4-yl)picolinic acid] | 311 | 92.1 | 89 |
| 25.9 | 88 | Cc1ncsc1-c1ccc(CNC(=O)[C@@H]2C[C@@H](O)CN2C(=O)[C@@H](NC(=O)C2(F)CC2)C(C)(C)C)c(OCC(=O)N2CCN(CCOC34CC5(C)CC(C)(CC(Cn6ncc(-c7ccc(N8CCCc9c8nnc(Nc8nc%10ccccc%10s8)c9C)nc7C(=O)O)c6C)(C5)C3)C4)CC2)c1 [Example 50, 6-(3-(benzo[d]thiazol-2-ylamino)-4-methyl-6,7-dihydropyrido [2,3-c]pyridazin-8(5H)-yl)-3-(1-(((1r,3s,5R,7S)-3-(2-(4-(2-(2-(((2S,4R)-1-((S)-2-(1-fluorocyclopropane-1-carboxamido)-3,3-dimethylbutanoyl)-4-hydroxypyrrolidine-2-carboxamido)methyl)-5-(4-methylthiazol-5-yl)phenoxy)acetyl)piperazin-1-yl)ethoxy)-5,7-dimethyladamantan-1-yl)methyl)-5-methyl-1H-pyrazol-4-yl)picolinic acid] | 287 | 90.2 | 93.8 |
| 15.6 | 71.4 | Cc1ncsc1-c1ccc(CNC(=O)[C@@H]2C[C@@H](O)CN2C(=O)[C@@H](NC(=O)COCCOCCOCC(=O)N2CCN(CC#Cc3ccc(OCCCc4sc(N5CCCc6c5nnc(Nc5nc7ccccc7s5)c6C)nc4C(=O)O)c(F)c3)CC2)C(C)(C)C)cc1 [Example 40, 2-(3-(benzo[d]thiazol-2-ylamino)-4-methyl-6,7-dihydropyrido [2,3-c]pyridazin-8(5H)-yl)-5-(3-(2-fluoro-4-(3-(4-((S)-13-((2S,4R)-4-hydroxy-2-((4-(4-methylthiazol-5-yl)benzyl)carbamoyl)pyrrolidine-1-carbonyl)-14,14-dimethyl-11-oxo-3,6,9-trioxa-12-azapentadecanoyl)piperazin-1-yl)prop-1-yn-1-yl)phenoxy)propyl)thiazole-4-carboxylic acid] | 107 | 82.1 | 87.3 |
| 8.83 | 30.3 | Cc1ncsc1-c1ccc([C@H](C)NC(=O)[C@@H]2C[C@@H](O)CN2C(=O)[C@@H](NC(=O)C2CC3(C2)CC(C(=O)N2CCN(CC#Cc4ccc(OCCCc5sc(N6CCCc7c6nnc(Nc6nc8ccccc8s6)c7C)nc5C(=O)O)c(F)c4)CC2)C3)C(C)(C)C)cc1 (stereo partly drawn) [Example 41, 2-(3-(benzo[d]thiazol-2-ylamino)-4-methyl-6,7-dihydropyrido [2,3-c]pyridazin-8(5H)-yl)-5-(3-(2-fluoro-4-(3-(4-(6-(((S)-1-((2S,4R)-4-hydroxy-2-(((S)-1-(4-(4-methylthiazol-5-yl)phenyl)ethyl)carbamoyl)pyrrolidin-1-yl)-3,3-dimethyl-1-oxobutan-2-yl)carbamoyl)spiro[3.3]heptane-2-carbonyl)piperazin-1-yl)prop-1-yn-1-yl)phenoxy)propyl) thiazole-4-carboxylic acid] | 220 | 88.2 | 106 |
